Experimental findings from PubChem BioAssay (NCI) are described below.

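Interpolation was linear, between the two tested concentrations surrounding the appropriate level; five concentrations were tested over 48 hours in 96-well plates. The concentration for full growth arrest is given as TGI.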

Test systems include SK-OV-3 ovarian; UACC-257 melanoma; RXF 393 renal; RPMI-8226 leukemia; SF-539 CNS; A498 renal; SF-295 CNS; SK-MEL-2 melanoma; OVCAR-4 ovarian; T-47D breast.
Holding throughout (experiment): DTP human tumour cell line panel, 48 h

As a reminder, the TGI is the concentration giving total growth inhibition. The low end stands for more potent growth arrest, the high end for less potent growth arrest. Take `CCC(=O)/C(=C\I)c1ccccc1`: the TGI in the assay with SK-OV-3 ovarian was 30.2 µM; with UACC-257 melanoma it was 16.7 µM; with RXF 393 renal, 3.01 µM; in the assay with RPMI-8226 leukemia, more than 100 µM; in the assay with SF-539 CNS it was 34.3 µM; in the assay on A498 renal, 32.1 µM. For the same molecule, the concentration for total growth inhibition (TGI) with SF-295 CNS amounted to 33.4 µM; in the assay with SK-MEL-2 melanoma, 4.41 µM.

With `CCOc1ccc(/C=C2\NC(=S)N(/C=C3\C(=O)Oc4ccccc4C3=O)C2=O)cc1`, the total growth inhibition concentration (TGI) turned out to be 38.8 µM in the assay with SK-OV-3 ovarian; 75.8 µM in the assay on UACC-257 melanoma; 33.6 µM with RXF 393 renal; 36.5 µM with SF-539 CNS; 66.5 µM in the assay with OVCAR-4 ovarian; 49.8 µM with SF-295 CNS. The molecule also returned a total growth inhibition concentration (TGI) in the assay on SK-MEL-2 melanoma of 48 µM.

As for `N=c1oc2ccccc2cc1-c1nc2ccccc2c(=O)[nH]1`, the TGI in the assay on SK-OV-3 ovarian, in the assay with UACC-257 melanoma, with RXF 393 renal, with RPMI-8226 leukemia, with SF-539 CNS and with T-47D breast was more than 100 µM each time. Moreover, the TGI with OVCAR-4 ovarian, in the assay on SF-295 CNS and in the assay with SK-MEL-2 melanoma was more than 100 µM in each case.

With `CC(=O)N(C(C)=O)n1c(Cc2ccc(C)cc2)nn(C(C)=O)c1=O`, the total growth inhibition concentration (TGI) in the assay with SK-OV-3 ovarian, in the assay on UACC-257 melanoma, with RPMI-8226 leukemia, in the assay on SF-539 CNS, in the assay with T-47D breast and in the assay with OVCAR-4 ovarian was more than 100 µM throughout. Moreover, the TGI in the assay on A498 renal, with SF-295 CNS and in the assay on SK-MEL-2 melanoma was more than 100 µM throughout.

As to `COP(=O)(O)C(N)Cc1c[nH]c2ccccc12` (stereo not given), the concentration for total growth inhibition (TGI) with SK-OV-3 ovarian, with UACC-257 melanoma, in the assay on RPMI-8226 leukemia, in the assay with T-47D breast, in the assay on OVCAR-4 ovarian and with A498 renal was more than 100 µM each time. The TGI in the assay on SF-295 CNS and in the assay with SK-MEL-2 melanoma was more than 100 µM each time.

For the molecule `O=C(CSc1nnc(-c2ccc(N=Cc3ccc(Cl)cc3)cc2)o1)Nc1ccc([N+](=O)[O-])cc1`, the concentration for total growth inhibition (TGI) is more than 100 µM with SK-OV-3 ovarian; 44.3 µM in the assay with UACC-257 melanoma; 34.6 µM with RXF 393 renal; 8.01 µM with RPMI-8226 leukemia; 84.9 µM in the assay with OVCAR-4 ovarian; 79.4 µM in the assay with SF-295 CNS. Besides, in the assay on SK-MEL-2 melanoma, the total growth inhibition concentration (TGI) worked out at 60.8 µM.

`COc1cccc(-c2nccc3c(OCc4ccccc4)c(OC)c(OC)cc23)c1`: the TGI in the assay with SK-OV-3 ovarian, in the assay with UACC-257 melanoma, in the assay with RXF 393 renal, in the assay on RPMI-8226 leukemia, in the assay on SF-539 CNS and in the assay on A498 renal was more than 100 µM each time. The TGI in the assay with SF-295 CNS and with SK-MEL-2 melanoma was more than 100 µM each time.

For the molecule `O=C1CS(=O)(=O)C(c2cccc(Oc3ccccc3)c2)N1c1ccccc1` (stereo not given), the concentration for total growth inhibition (TGI) in the assay on SK-OV-3 ovarian is more than 100 µM; with UACC-257 melanoma, 46 µM; with RXF 393 renal, 38.7 µM; with SF-539 CNS, 39.6 µM; with T-47D breast, more than 100 µM; in the assay with OVCAR-4 ovarian, more than 100 µM. In addition, the TGI in the assay on A498 renal is 41.8 µM; in the assay on SF-295 CNS, more than 100 µM; with SK-MEL-2 melanoma, 31.5 µM.

Regarding `O=C1/C(=C/c2ccccc2)NC(=S)N1CN1CCCCC1`, the TGI is more than 100 µM in the assay with SK-OV-3 ovarian; more than 100 µM in the assay with UACC-257 melanoma; more than 100 µM in the assay on RPMI-8226 leukemia; 92.6 µM in the assay with OVCAR-4 ovarian; more than 100 µM in the assay with A498 renal; more than 100 µM with SF-295 CNS. The molecule also came in with a TGI with SK-MEL-2 melanoma of more than 100 µM.

For `Cn1ccnc1CCc1ccc(Cl)c(Cl)c1`, the TGI with SK-OV-3 ovarian, in the assay with UACC-257 melanoma, with RXF 393 renal, in the assay on RPMI-8226 leukemia, with SF-539 CNS and in the assay with OVCAR-4 ovarian was more than 100 µM each time. The concentration for total growth inhibition (TGI) in the assay on A498 renal, in the assay on SF-295 CNS and in the assay with SK-MEL-2 melanoma was more than 100 µM each time.

`N[C@H](CCC(=O)NCP(=O)(O)O)C(=O)O`: the total growth inhibition concentration (TGI) in the assay on UACC-257 melanoma, with RPMI-8226 leukemia, with SF-539 CNS, with T-47D breast, in the assay with A498 renal and in the assay on SF-295 CNS was more than 100 µM each time. Moreover, the TGI in the assay on SK-MEL-2 melanoma was more than 100 µM.

As for `Cc1c(O)c(OC2OC(CO)C(O)C(O)C2O)cc2c1C=C[C@@H]1[C@@]2(C)C(=O)C[C@]2(C)[C@@H]([C@@](C)(O)C(=O)CCC(C)(C)O)[C@H](O)C[C@@]12C` (stereo not given in full), the TGI in the assay with SK-OV-3 ovarian is 42.1 µM; in the assay with UACC-257 melanoma, 47.2 µM; in the assay with RXF 393 renal it was 38.1 µM; with SF-539 CNS, 43.9 µM; in the assay with T-47D breast, 46.3 µM; with OVCAR-4 ovarian, more than 100 µM. Besides, the TGI with A498 renal was 36.7 µM; in the assay on SF-295 CNS, 36 µM; in the assay with SK-MEL-2 melanoma, 68.7 µM.

In the case of `CCOC(=O)c1[nH]c2cccc3c2c1CC[C@H](NC(=O)C(F)(F)F)C3=O`, the total growth inhibition concentration (TGI) in the assay on UACC-257 melanoma is more than 100 µM; with RPMI-8226 leukemia, more than 100 µM; in the assay with SF-539 CNS, more than 100 µM; with OVCAR-4 ovarian, 80.5 µM; in the assay on A498 renal, more than 100 µM; in the assay on SF-295 CNS, 72.4 µM. The molecule also gave a concentration for total growth inhibition (TGI) in the assay on SK-MEL-2 melanoma of more than 100 µM.

`COC1=C2C=[N+](C)C3C(=C2C=CC1OC)Cc1cc2c(cc13)OCO2` (stereo not given): the TGI in the assay with SK-OV-3 ovarian is 28.3 µM; in the assay on UACC-257 melanoma, 26.2 µM; with RPMI-8226 leukemia, 27.1 µM; in the assay with SF-539 CNS, 24 µM; in the assay with T-47D breast it was 18.8 µM; in the assay with OVCAR-4 ovarian, 22.3 µM. For the same molecule, the figures for the concentration for total growth inhibition (TGI) with A498 renal, in the assay with SF-295 CNS and in the assay on SK-MEL-2 melanoma were more than 100 µM, 29 µM and 29.6 µM, respectively.

As to `NC(=Nc1ccccc1)c1ccccc1N`, the TGI with SK-OV-3 ovarian, with UACC-257 melanoma, in the assay on RXF 393 renal, in the assay with RPMI-8226 leukemia, with OVCAR-4 ovarian and in the assay with A498 renal was more than 100 µM each time. Besides, the TGI with SF-295 CNS and in the assay with SK-MEL-2 melanoma was more than 100 µM in each case.

On to `Cc1ccc(S(=O)(=O)N/N=C2/CCC(C(C)(C)C)CC2Br)cc1` (stereo not given), for which the TGI in the assay on SK-OV-3 ovarian is more than 100 µM; in the assay with UACC-257 melanoma it was more than 100 µM; in the assay with RPMI-8226 leukemia it was 82.3 µM; in the assay on SF-539 CNS, 50.4 µM; in the assay on T-47D breast, more than 100 µM; in the assay on OVCAR-4 ovarian, 33.6 µM. Further, the TGI with A498 renal was more than 100 µM; with SF-295 CNS, more than 100 µM; in the assay with SK-MEL-2 melanoma, 28.1 µM.
